# Assay results: patent publication US9090659B2, “RHAMM binding peptides” (London Health Sciences Centre Research Inc., priority 2010, dated 2015)
# pKd: −log10 of the molar value. Ends that are not written are not given here. Peptide text beside a SMILES is read from it.
# Target: T1, RHAMM (Mus musculus, UniProt Q00547)
# T1 construct: Profinity eXact tag; made in house; host or cells: E. coli BL21 (D3), plasmid pPAL7-RHAMM
# Test: KD (nM)
# Conditions: not given
# Description: Table printed on a drawing sheet, FIG. 2 B
# Head of the field: KD (nM)
# The patent's description of the figure: FIG. 2 A illustrate the general structure of (a) unmodified tubulin-derived peptides, (b) tubulin-derived peptides conjugated to N-acetyl cysteine, and (c) tubulin-derived peptides conjugated to fluorescein isothiocyanate.
# FIG. 2 B is a table of 17 synthesized tubulin-derived peptides, including peptides derivatized with fluorescein or N-acetyl cysteine, tubulin fragment type, calculated and observed mass spectrometry m/z values (m is representative of molecular or atomic mass and z is representative of the number of elementary charges carried by the ion), percent purity and binding constant Kd. FIG. 2 B discloses SEQ ID NOs: 1, 24-25, 2-3, 26-27, 4-9, 28-29, 10-11, 30-31, 12, 32-33, 13-14, 34-35 and 15-17, respectively, in order of appearance.
# FIG. 2 B is a table which describes all 17 peptides prepared for this study. Sequences of 17 synthesized peptides encompass the CTTs of different tubulin subtypes as well as sequences directly flanking α1a- (SEQ ID NOs: 6, 7 and 8) and βIIIa-CTT (SEQ ID NOs: 13 and 14). […]
# First copying reader's note: The table is continued on the next sheet (printed: continued on page 4/20).
# Where the first naming reader finds the target: patent_title: RHAMM binding peptides
row,Compound,pKd
1,"C[C@H](NC(=O)[C@H](CO)NC(=O)[C@@H](N)CC(=O)O)C(=O)N[C@@H](CC(=O)O)C(=O)NCC(=O)N[C@@H](CCC(=O)O)C(=O)N[C@@H](CC(=O)O)C(=O)N[C@@H](CCC(=O)O)C(=O)NCC(=O)N[C@@H](CCC(=O)O)C(=O)N[C@@H](CCC(=O)O)C(=O)N[C@@H](Cc1ccc(O)cc1)C(N)=O [SEQ ID NO. 2 | 2, Alpha Ia CTT (438-449)] (H-DSADGEDEGEEY-NH2; N-terminus assumed)",> 6.00
2,"CC(C)[C@H](NC(=O)[C@@H](N)CO)C(=O)N[C@@H](CCC(=O)O)C(=O)N[C@@H](C)C(=O)N[C@@H](CCC(=O)O)C(=O)N[C@@H](C)C(=O)N[C@@H](CCC(=O)O)C(=O)N[C@@H](CCC(=O)O)C(=O)NCC(=O)N[C@@H](CCC(=O)O)C(=O)N[C@@H](CCC(=O)O)C(=O)N[C@@H](Cc1ccc(O)cc1)C(N)=O [SEQ ID NO. 3 | 3a, Alpha IIIc CTT (439-450)] (H-SVEAEAEEGEEY-NH2; N-terminus assumed)",6.48

# Target: T2, RHAMM (Mus musculus, UniProt Q00547)
# T2 construct: Profinity eXact tag; made in house; host or cells: E. coli BL21 (D3), plasmid pPAL7-RHAMM
# T2 sequence (Q00547 706-766): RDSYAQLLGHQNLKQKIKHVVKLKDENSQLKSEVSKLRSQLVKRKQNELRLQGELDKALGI
# Test: SPR binding assay for kinetic constants, RHAMM flowed over immobilized peptides (GWC SPRimager II)
# Conditions: peptide immobilized on sensor plate; RHAMM 500, 750, 1000 nM; 1:1 Langmuir binding model
# Description: After peptide screening, […] system was used to determine binding kinetic constants. Thiol-containing peptides at 1 nM concentration in milliQ water were immobilized on a maleimide-functionalized gold-plated chip for 3 hours. Excess peptides were removed by washing with milliQ water. For binding studies, a series of concentrations (500 nM, 750 nM, and 1000 nM) of RHAMM were injected over the immobilized peptides. After a 15 min dissociation phase, the sensor chip surface was regenerated for the next peptide sample injection, via treatment with two 10 min pulse injections of regenerating buffer (2 M NaCl in HBS-EP, pH 7.4) at […]. Baseline returned to the initial value after the regeneration step, confirming the removal of all bound analytes. Data were analyzed and the corresponding dissociation constants (KD) were obtained via non-linear regression fitting to a Langmuir binding model. In all experiments, reference subtraction was performed using data obtained from reference plate (no peptide) and peptide functionalized plate. The binding of the six peptides deduced in the previous section to RHAMM was quantified. Truncation studies indicate that the CTTs (i.e. the last 12 carboxy-terminal residues of S-peptides), were sufficient to induce MAP-directed microtubule assembly, thus placing a label spaced by a linker moiety on the amino terminus of CTT should not affect the peptide-protein interaction. Peptides were immobilized on the sensor plate and RHAMM was flowed over derivatized surface at different concentrations at a constant flow rate of 100 μL/min. FIG. 4 A depicts the resulting sensograms. Again, each sensograms has been corrected by subtracting each curve from a reference sensorgram (data acquired from the sensorgram without immobilized peptide) in order to account for refractive index differences between running buffer and sample solutions. Experimental sensograms were fitted with curves resulting from a kinetic model for a 1:1 Langmuir binding model. […]
row,Compound,pKd
1,CC(C)[C@H](N)C(=O)N[C@@H](CCC(=O)O)C(=O)NCC(=O)N[C@@H](CCC(=O)O)C(=O)NCC(=O)N[C@@H](CCC(=O)O)C(=O)N[C@@H](CCC(=O)O)C(=O)N[C@@H](CCC(=O)O)C(=O)NCC(=O)N[C@@H](CCC(=O)O)C(=O)N[C@@H](CCC(=O)O)C(=O)N[C@@H](Cc1ccc(O)cc1)C(N)=O [SEQ ID NO: 1] (H-VEGEGEEEGEEY-NH2),7.62
2,C[C@H](NC(=O)[C@H](CCC(=O)O)NC(=O)[C@H](CCC(=O)O)NC(=O)[C@H](CCC(=O)O)NC(=O)[C@H](C)NC(=O)[C@H](CCC(=O)O)NC(=O)[C@H](CCC(=O)O)NC(=O)CNC(=O)[C@H](Cc1ccccc1)NC(=O)[C@H](CC(=O)O)NC(=O)[C@H](CCC(=O)O)NC(=O)[C@@H](N)CCC(=O)O)C(N)=O [SEQ ID NO: 9] (H-EEDFGEEAEEEA-NH2),7.49
3,CSCC[C@H](NC(=O)[C@H](CC(N)=O)NC(=O)[C@H](CO)NC(=O)[C@H](CCC(=O)O)NC(=O)[C@H](C)NC(=O)[C@H](CCC(=O)O)NC(=O)[C@@H](NC(=O)[C@@H](N)Cc1ccccc1)[C@@H](C)O)C(=O)N[C@@H](CC(N)=O)C(=O)N[C@@H](CC(=O)O)C(=O)N[C@@H](CC(C)C)C(=O)N[C@H](C(N)=O)C(C)C [SEQ ID NO: 14] (H-FTEAESNMNDLV-NH2),7.52

# Target: T2, RHAMM
# Test: SPR-based screening of tubulin-derived peptides against immobilized RHAMM (ProteON XPR36)
# Format: binding
# Conditions: peptides 10 μM injected over immobilized RHAMM
# Description: ProteON XPR36 system was used for the selection and ranking of different tubulin derived peptides against RHAMM. For immobilization of RHAMM, the ProteON GLC sensor chip surfaces were activated by amine coupling using 100 mM EDAC and 24 mM sulfo-NHS. RHAMM (30 μg/mL in sodium bicarbonate buffer, pH 9.7) was injected at a flow a rate of 30 μl/min. A buffer sample was injected on a different sensor plate for use as a reference. Ethanolamine HCl (1M, pH 8.5) was then injected to deactivate any remaining surface groups. Peptides (10 μM in PBS-T, 2% DMSO) were injected to a RHAMM functionalized surface at 50 μL/min for 3 minutes followed by a 10 minute dissociation (i.e. injection of PBS-T buffer) period. The surfaces were regenerated using two injections of 30 μL of 1M NaCl prior to the injection of the next peptide. In all experiments, reference subtraction was performed using data obtained from reference plate (No RHAMM) and RHAMM functionalized plate.
# A SPR (surface plasmon resonance)-based screening method was utilized for rapid and accurate determination of potential peptide candidates that are able to recognize the HA-binding domain of RHAMM. Seventeen tubulin-derived peptides were screened, and the resulting sensograms were used to deduce peptides which show affinity to RHAMM. Prior to screening, the optimal condition for ligand immobilization, in this instance RHAMM, to the sensor plate was determined. The optimal pH for the immobilization buffer balances the electrostatic attraction of the protein to the sensor plate while minimizing protein deactivation. In this study the optimal pH for immobilization was determined to be the pH that yielded the highest ligand density. RHAMM was coupled to the sensor plate using sodium bicarbonate buffer of varying pH, at a flow rate of 30 μL/min and with fixed concentration of EDAC and sulfo-NHS. The RHAMM ligand density for each pH immobilization condition was determined from the average SPR response of six measurements and the maximum ligand immobilization occurred at pH 9.7 (FIG. 3 A). Ligand immobilization was slightly lower than pH 10.1 due in part to loss of net charge on RHAMM at its isoelectric point.
# After immobilization of RHAMM on the SPR sensor chip, injection of a series of tubulin derived peptides was carried out. Association of the peptides with RHAMM proceeded for 3 minutes and the dissociation in analyte free buffer was carried out for 10 minutes. […] For each peptide injection, control sensograms (no immobilized RHAMM and buffer injection) were subtracted from the test sensograms, and the chip surface was regenerated prior to the next peptide injection in order to remove any remaining bound peptides.
row,Compound,affinity to RHAMM in SPR screening
1,SEQ ID NO: 2: synthesized tubulin-derived 12-residue peptide containing DEXEEZ motif (DSADGEDEGEEY),failed the initial screening
2,SEQ ID NO: 3: synthetic αIIIc tubulin CTT peptide containing EEXEEZ motif (SVEAEAEEGEEY),enhanced affinity to RHAMM
3,SEQ ID NO: 4: synthesized tubulin-derived 12-residue peptide containing DEXEEZ motif (IDSYEDEDEGEE),failed the initial screening
4,SEQ ID NO: 10: synthesized tubulin-derived 12-residue peptide containing EEXEDZ motif (GEFEEEEGEDEA),failed the initial screening
5,SEQ ID NO: 11: synthetic βIV-CTT tubulin peptide containing EEXEEZ motif (GEFEEEAEEEVA-NH2),enhanced affinity to RHAMM
6,SEQ ID NO: 12: synthesized tubulin-derived 12-residue peptide of FIG. 2B (EAFEDEEEEIDG),enhanced affinity to RHAMM

# System: ascites-derived human EOC cells
# Test: Cell viability (alamarBlue) of ascites-derived human EOC cells
# Format: cell-based
# Conditions: 7 and 0.7 uM, re-dosing everyday up to 6 days; p<0.05
# Description: The ability of one RHAMM-binding peptide (SEQ ID NO: 1) to limit the proliferation of patient derived epithelial ovarian cancer tumors and the ability of another RHAMM-binding peptide (SEQ ID NO: 3) to reduce the viability of ascites-derived human EOC cells were examined. In these assays, epithelial ovarian cancer cells (derived from ascites of patients) were plated in a 96-well plate at density 5,000 cells/well and allowed to grow for 24 hours at 37° C. and 5% CO2. Peptides (1 uM and 10 uM) were added to cells on day one and proliferation was measured for 6 days. 1/10th volume of Alamar Blue reagent was added directly to cells in culture medium everyday for six days. Fluorescence was read at 570/590 nm. Data were obtained from mean of two experiments. Cells treated with just DMSO (dimethylsulfoxide) and “no-cell” control samples were included in the experiment.
# Primary cells from patient sample EOC were seeded to a 24-well culture dish and 24 hours later treatment was initiated with the RHAMM-binding peptide SEQ ID NO: 3 (7 and 0.7 uM concentrations) or DMSO vehicle control. Re-dosing occurred everyday for up to 6 days and cell viability was assessed by fluorometry using alamarBlue™ reagent (measured in fluorescence units, FU).
row,Compound,viability of EOC cells (fluorescence units)
1,SEQ ID NO: 3: synthetic αIIIc tubulin CTT peptide containing EEXEEZ motif (SVEAEAEEGEEY),reduced viability
